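Tested at 5 concentrations; 48 h exposure; 96-well plates; endpoints linearly interpolated, else capped at highest concentration. GI50 = concentration required for 50% inhibition of growth. TGI is the concentration that stops growth completely.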
Tests used:
Experiment in all cases: growth of human tumour cells (NCI), 48 h
[1] = tested on: DU-145 prostate
[2] = tested on: HCT-15 colon
[3] = tested on: HOP-92 NSCLC
[4] = tested on: NCI/ADR-RES ovarian
[5] = tested on: OVCAR-3 ovarian
[6] = tested on: OVCAR-5 ovarian
[7] = tested on: SF-295 CNS
[8] = tested on: SN12C renal
[9] = tested on: SR leukemia
[10] = tested on: TK-10 renal

Compound | GI50 [1] [µM] | TGI [1] [µM] | GI50 [2] [µM] | TGI [2] [µM] | GI50 [3] [µM] | TGI [3] [µM] | GI50 [4] [µM] | TGI [4] [µM] | GI50 [5] [µM] | TGI [5] [µM] | GI50 [6] [µM] | TGI [6] [µM] | GI50 [7] [µM] | TGI [7] [µM] | GI50 [8] [µM] | TGI [8] [µM] | GI50 [9] [µM] | TGI [9] [µM] | GI50 [10] [µM] | TGI [10] [µM]
COc1ccc2cc(-c3cnc4nonc4n3)ccc2c1 | 24.4 | > 100 | 0.684 | > 100 | 16.1 | > 100 | 1.32 | > 100 | 0.982 | 56.9 | 6 | > 100 | 2.08 | > 100 | 5.28 | > 100 | 0.423 | > 100 | 10.6 | > 100
CCC1=C(c2ccc(OC)cc2)C(C)(C)Oc2c1ccc(O)c2CN1CCCC1 | 3.77 | > 100 | 1.91 | 4.44 | 1.23 | 3.98 | 3.05 | 16 | 4.13 | 36.2 | 4.1 | 29.4 | 2.33 | 6.01 | 3.74 | > 100 | 0.927 | 3.63 | 5.26 | 31.3
Oc1ccccc1-c1nn(CNc2ccc(Cl)cc2)c(=S)o1 | – | – | 20 | 45.4 | 88.8 | > 100 | 18.9 | 79.7 | 23.5 | > 100 | > 100 | > 100 | > 100 | > 100 | 75.8 | > 100 | 16 | 43.4 | 1.53 | > 100
CSC(=O)C[C@@]12O[C@@H]([C@@H](C)C3CCC4[C@@H]5C(O)CC6=CC(=O)C=C[C@]6(C)C5CC[C@@]43C)C[C@](C)(O1)C(C)(C)O2 (stereo partly drawn) | – | – | – | 32 | – | 23 | – | – | – | 30.2 | – | 31.8 | – | 28.6 | – | 31.5 | – | 34.8 | – | 34.8
CC1=CCC2CC1C(C(=O)c1c[nH]c3ccccc13)=NC2(C)C (stereo not drawn) | – | > 100 | – | > 100 | – | – | – | > 100 | – | > 100 | – | > 100 | – | – | – | > 100 | – | > 100 | – | –
CC(=O)OC12C(C)=C(C)C(=O)N1c1ccccc1N2C(C)=O (stereo not drawn) | – | – | – | > 100 | – | > 100 | – | – | – | > 100 | – | > 100 | – | > 100 | – | – | – | > 100 | – | > 100
COC(=O)CCC(=O)Nc1ccc(Cl)cc1C | – | – | – | > 100 | – | > 100 | – | – | – | > 100 | – | > 100 | – | > 100 | – | > 100 | – | > 100 | – | > 100
NC(=S)N/N=C/c1ccc(OC(=O)COc2cc(Cl)c(Cl)cc2Cl)cn1 | 3.52 | 27.3 | 6.84 | > 100 | 1.54 | 26.6 | 3.23 | > 100 | 3.39 | 58.2 | 50.7 | > 100 | – | – | 3.58 | > 100 | 4.7 | > 100 | 41.9 | > 100
CCN(CC)CCN(CC)CC.CCN(CC)CCN(CC)CC.[Cu+2].[Cu+2].[O-][Cl+3]([O-])([O-])[O-].[OH3+].[OH3+] | – | – | – | – | > 100 | > 100 | – | – | 23.9 | 55.8 | – | – | 34.4 | 98.9 | 90.7 | > 100 | > 100 | > 100 | 96.7 | > 100
CC(Oc1ccc2c(-c3ccc(Cl)cc3)cc(=O)oc2c1)C(=O)O (stereo not drawn) | – | – | – | – | – | > 100 | – | – | – | > 100 | – | – | – | > 100 | – | > 100 | – | > 100 | – | > 100
CC(=O)OCc1c(O)c2c([nH]c1=O)CCc1ccccc1-2 | – | – | – | 112 | – | 182 | – | – | – | 102 | – | – | – | 274 | – | 155 | – | > 350 | – | 186
Cc1ccc(/C=C/C(=O)c2ccc(Cl)c(Cl)c2)cc1 | – | – | – | – | – | – | – | – | – | > 100 | – | > 100 | – | > 100 | – | > 100 | – | > 100 | – | > 100
O=C1c2ccccc2C(=O)N1CCc1ncc(-c2ccccc2)[nH]1 | – | > 100 | – | > 100 | – | – | – | > 100 | – | > 100 | – | > 100 | – | > 100 | – | > 100 | – | > 100 | – | > 100
O=S1(=O)c2ccccc2N(O)C2=NCCN21 | – | – | – | – | – | > 100 | – | – | – | > 100 | – | > 100 | – | > 100 | – | > 100 | – | > 100 | – | > 100
O=C(c1c(F)c(F)c(F)c(F)c1F)c1c(F)c(F)c(F)c(F)c1F | – | 4.64 | – | 3.83 | – | 3.43 | – | 14.5 | – | 2.43 | – | 3.65 | – | 6.44 | – | – | – | 1.07 | – | 2.47
O=C1CCCCCCC2=C1C(Sc1ccccc1)CC2 (stereo not drawn) | – | – | – | > 100 | – | – | – | – | – | – | – | – | – | > 100 | – | 42.3 | – | 79.3 | – | > 100
COc1ccc(CC(=O)NCCc2ccc(OC)c(OC)c2OC)cc1 | – | – | – | – | – | – | – | – | – | – | – | > 100 | – | > 100 | – | > 100 | – | > 100 | – | > 100
O=C1Nc2c(Cl)cc(Cl)cc2/C1=N/N=C/c1ccco1 | – | – | – | > 100 | – | > 100 | – | 82.1 | – | 95.1 | – | > 100 | – | > 100 | – | 82.1 | – | > 100 | – | > 100
CC(=O)O.CN1[CH-]N(Cc2ccc(C#N)cc2)c2ccccc21.[Ag+] | 17.7 | 32.6 | 18 | 38 | 20.3 | 40.7 | > 100 | > 100 | 16.6 | 30.4 | 58.4 | > 100 | 82.3 | > 100 | 18.9 | 38.4 | – | – | 18 | 32
O=C(C[n+]1ccccc1)N/N=C(/CCC(=O)N(Cc1ccccc1)Cc1ccccc1)CC(=O)c1ccccc1 | – | – | – | > 100 | – | > 100 | – | – | – | > 100 | – | > 100 | – | > 100 | – | > 100 | – | > 100 | – | > 100
Cc1cc(OCc2nnc3n2S(=O)(=O)c2ccccc2N3C)ccc1Cl | – | > 100 | – | > 100 | – | 36.4 | – | > 100 | – | 57.2 | – | > 100 | – | 50.2 | – | > 100 | – | – | – | > 100
C=CCC1(C(=O)OC)CCC/C(=N\O)C1 (stereo not drawn) | – | > 10 | – | > 10 | – | > 10 | – | > 10 | – | > 10 | – | – | – | > 10 | – | > 10 | – | > 10 | – | > 10
Cc1ccc(NCC2(/N=C/c3ccccc3)OC(CO)C(O)C2O)cc1 (stereo not drawn) | – | – | – | > 100 | – | > 100 | – | – | – | > 100 | – | > 100 | – | > 100 | – | – | – | > 100 | – | > 100
CCOC(=O)c1[nH]c2cc(Cl)ccc2c1[C@@H](C(=O)NC(C)(C)C)N(CC)C(=O)CCCCC#Cc1cccc2c1CN(C1CCC(=O)NC1=O)C2=O (stereo partly drawn) | 3.06 | 46.8 | 0.048 | > 33.2 | < 0.01 | < 0.0238 | 1.19 | > 100 | 1.58 | > 38.9 | 2.08 | 40.2 | 1.14 | 3.88 | 0.283 | > 100 | – | – | 2.65 | 16.1
CN(C)CCNc1ccc2ncn3c4ccc(O)cc4c(=O)c1c23 | – | 10.8 | – | 10.2 | – | 13.8 | – | 18.9 | – | 13.4 | – | 15 | – | 14 | – | 13.3 | – | – | – | 21.8
CCOC(=O)C1(C(=O)OCC)C(C(C)(C)C)=C(C)c2ccccc21 | – | – | – | 28.7 | – | 16.7 | – | – | – | 24.9 | – | 31.4 | – | 30.2 | – | 28.7 | – | > 100 | – | 72.4
COc1ccc(C(=O)C2CCC(C(=O)O)C2)cc1 (stereo not drawn) | – | – | – | > 100 | – | > 100 | – | – | – | > 100 | – | > 100 | – | > 100 | – | > 100 | – | > 100 | – | > 100
C(=N\Nc1ncc(-c2cc3cc4c(cc3o2)OCO4)s1)/c1ccco1 | 2.02 | 5.49 | – | – | 1.94 | 8.98 | 2.21 | > 100 | – | – | 2.71 | 8.67 | 2.78 | 11.5 | 2.97 | 12.7 | 1.29 | 25.3 | 3.38 | 24.7
CN(C)c1ccc(/C=N/NC(N)=S)nc1 | 2.45 | 16.3 | 4.11 | > 100 | > 100 | > 100 | 4.08 | > 100 | 2.54 | > 100 | – | – | 2.91 | 16.1 | 3.51 | > 100 | 2.73 | > 100 | 7.61 | > 100
NC(=O)CC1OC(=O)Cc2cc3c(c(O)c21)C(=O)c1c(O)cccc1C3=O (stereo not drawn) | – | > 100 | – | > 100 | – | > 100 | – | > 100 | – | – | – | > 100 | – | > 100 | – | > 100 | – | > 100 | – | > 100
